# Results: ChEMBL document CHEMBL1201862, “PubChem BioAssay data set” (2004)
# The source made the active and inactive calls.
# Columns and labels:
# T-cell = test: loss of vesicle association with mouse CD8+ T cells – mouse 2C CD8+ T cells, flow cytometry, dose response (AID 485284); format: functional
# Coagulation factor XII = target: T1, Coagulation factor XII (Homo sapiens, UniProt P00748); test: activated coagulation factor XII inhibitor potency, concentration-effect curve, cell-free (AID 716); format: functional
# T1 sequence (P00748 whole entry): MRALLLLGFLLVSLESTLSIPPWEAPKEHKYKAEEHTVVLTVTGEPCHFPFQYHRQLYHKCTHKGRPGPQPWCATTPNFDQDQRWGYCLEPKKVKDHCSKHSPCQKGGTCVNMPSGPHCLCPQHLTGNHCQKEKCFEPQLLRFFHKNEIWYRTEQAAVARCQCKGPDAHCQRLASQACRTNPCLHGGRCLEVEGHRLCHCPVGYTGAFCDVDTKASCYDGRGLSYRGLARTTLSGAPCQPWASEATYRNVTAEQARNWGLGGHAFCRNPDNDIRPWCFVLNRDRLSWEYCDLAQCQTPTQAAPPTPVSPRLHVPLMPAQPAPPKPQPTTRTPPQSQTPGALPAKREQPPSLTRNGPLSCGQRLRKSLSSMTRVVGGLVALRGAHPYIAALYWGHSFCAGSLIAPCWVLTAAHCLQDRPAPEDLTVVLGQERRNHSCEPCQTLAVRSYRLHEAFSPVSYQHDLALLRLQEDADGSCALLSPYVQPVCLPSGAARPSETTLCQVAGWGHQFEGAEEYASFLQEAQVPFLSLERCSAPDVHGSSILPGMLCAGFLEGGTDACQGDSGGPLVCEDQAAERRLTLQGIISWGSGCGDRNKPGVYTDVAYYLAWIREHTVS
# Hexokinase HKDC1 = target: T2, Hexokinase HKDC1 (Homo sapiens, UniProt Q2TB90); test: activation of HKDC1 glucose phosphorylation – biochemical, W721R variant, dose response (AID 504730); format: functional
# T2 sequence (Q2TB90 whole entry): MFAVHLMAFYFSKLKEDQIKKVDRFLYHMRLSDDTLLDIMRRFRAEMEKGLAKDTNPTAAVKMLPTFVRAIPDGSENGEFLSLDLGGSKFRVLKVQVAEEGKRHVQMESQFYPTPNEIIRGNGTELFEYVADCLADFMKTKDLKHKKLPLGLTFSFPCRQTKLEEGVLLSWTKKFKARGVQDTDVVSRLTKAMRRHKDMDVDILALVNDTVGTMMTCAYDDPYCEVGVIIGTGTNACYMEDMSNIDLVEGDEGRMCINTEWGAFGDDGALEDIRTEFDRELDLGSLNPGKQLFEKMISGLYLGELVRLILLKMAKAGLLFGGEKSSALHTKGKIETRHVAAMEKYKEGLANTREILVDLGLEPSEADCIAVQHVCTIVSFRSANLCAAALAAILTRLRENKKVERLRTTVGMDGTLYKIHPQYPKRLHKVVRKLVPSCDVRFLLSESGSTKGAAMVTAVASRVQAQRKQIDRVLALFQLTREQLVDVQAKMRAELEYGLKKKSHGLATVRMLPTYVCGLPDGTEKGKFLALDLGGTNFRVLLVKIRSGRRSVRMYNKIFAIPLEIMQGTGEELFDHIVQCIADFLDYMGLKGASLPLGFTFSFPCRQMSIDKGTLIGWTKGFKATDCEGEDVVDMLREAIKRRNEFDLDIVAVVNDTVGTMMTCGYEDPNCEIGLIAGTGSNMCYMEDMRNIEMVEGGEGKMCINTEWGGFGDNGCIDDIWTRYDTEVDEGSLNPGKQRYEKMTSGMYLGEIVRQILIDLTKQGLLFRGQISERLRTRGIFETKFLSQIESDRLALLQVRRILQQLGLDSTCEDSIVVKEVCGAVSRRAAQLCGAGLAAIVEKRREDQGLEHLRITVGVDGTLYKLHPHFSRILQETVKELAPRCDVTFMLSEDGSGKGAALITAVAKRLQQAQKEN
# Hexokinase-1 = Hexokinase-1 (Homo sapiens, UniProt P19367); test: HK1 enzyme activation by HKDC1 hits – biochemical, selectivity assay for HKDC1 activator project, dose response (AID 504762); format: functional
# [1] = target: Tyrosine-protein phosphatase non-receptor type 12 (Homo sapiens, UniProt Q05209); test: SAR Selectivity Analysis of small molecule inhibitors of PEST using pCAP in a fluorescence assay. [Related pubchem assays (depositor defined):AID1779, AID1784, AID2135]; format: functional
# [2] = target: T3, Tyrosine-protein phosphatase non-receptor type 22 (Homo sapiens, UniProt Q9Y2R2); test: SAR LYP1 Fluorescent Assay using OMFP substrate for In Vitro dose response studies - Set 3. [Related pubchem assays (depositor defined):AID1779, AID1784, AID2140, AID2686]; format: functional
# T3 sequence (Q9Y2R2 whole entry): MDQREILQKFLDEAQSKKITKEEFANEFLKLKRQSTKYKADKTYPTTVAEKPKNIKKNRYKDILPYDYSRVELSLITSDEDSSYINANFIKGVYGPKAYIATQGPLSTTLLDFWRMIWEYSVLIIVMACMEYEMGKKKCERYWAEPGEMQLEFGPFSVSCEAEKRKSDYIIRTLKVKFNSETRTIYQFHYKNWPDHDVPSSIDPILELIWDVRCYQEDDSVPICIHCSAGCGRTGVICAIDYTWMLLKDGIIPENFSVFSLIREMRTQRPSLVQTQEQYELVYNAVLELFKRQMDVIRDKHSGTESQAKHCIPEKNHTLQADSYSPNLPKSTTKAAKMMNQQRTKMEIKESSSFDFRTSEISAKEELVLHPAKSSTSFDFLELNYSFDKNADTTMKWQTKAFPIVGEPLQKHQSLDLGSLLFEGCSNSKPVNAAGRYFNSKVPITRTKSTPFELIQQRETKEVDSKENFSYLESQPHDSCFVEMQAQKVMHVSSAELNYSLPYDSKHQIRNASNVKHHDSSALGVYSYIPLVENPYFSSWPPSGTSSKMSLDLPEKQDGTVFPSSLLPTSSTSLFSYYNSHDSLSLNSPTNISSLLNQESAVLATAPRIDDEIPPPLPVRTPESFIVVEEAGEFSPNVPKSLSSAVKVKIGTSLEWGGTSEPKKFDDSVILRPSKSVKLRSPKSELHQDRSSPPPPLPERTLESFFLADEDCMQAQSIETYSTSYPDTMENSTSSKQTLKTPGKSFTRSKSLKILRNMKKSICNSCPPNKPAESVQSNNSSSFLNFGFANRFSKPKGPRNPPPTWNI
# [3] = target: T4, Tyrosine-protein phosphatase non-receptor type 7 (Homo sapiens, UniProt P35236); test: redox-active compounds inhibiting HePTP phosphatase – biochemical, fluorescence, mechanism study (AID 2068); format: functional
# T4 sequence (P35236 whole entry): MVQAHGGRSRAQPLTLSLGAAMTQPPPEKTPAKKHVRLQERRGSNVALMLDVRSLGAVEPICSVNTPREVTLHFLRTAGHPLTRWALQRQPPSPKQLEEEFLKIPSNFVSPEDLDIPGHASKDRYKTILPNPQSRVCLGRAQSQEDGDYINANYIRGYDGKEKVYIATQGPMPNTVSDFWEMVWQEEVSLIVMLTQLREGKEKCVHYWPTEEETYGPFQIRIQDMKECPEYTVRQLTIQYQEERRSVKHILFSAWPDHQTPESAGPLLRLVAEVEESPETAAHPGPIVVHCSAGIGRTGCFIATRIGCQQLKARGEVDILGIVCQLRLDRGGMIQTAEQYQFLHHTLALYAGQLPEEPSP
# [4] = target: T4, Tyrosine-protein phosphatase non-receptor type 7; test: inhibition of hematopoietic tyrosine phosphatase HePTP – biochemical, set 2, SAR follow-up (AID 449736); format: functional
# [5] = target: T3, Tyrosine-protein phosphatase non-receptor type 22; test: inhibition of lymphoid tyrosine phosphatase LYP – biochemical, pCAP fluorogenic substrate, fluorescence, set 3, SAR follow-up (AID 449727); format: functional
# [6] = target: Dual specificity protein phosphatase 3 (Homo sapiens, UniProt P51452); test: SAR VHR1 Fluorescent Assay for In Vitro dose response studies Set 2. [Related pubchem assays (depositor defined):AID1654, AID1661, AID1878]; format: functional
# [7] = target: T5, Dual specificity protein phosphatase 6 (Rattus norvegicus, UniProt Q64346); format: functional;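 note: confirmatory in vitro dose-response testing of MKP-3 inhibition; recombinant His-tagged MKP-3 made in E. coli BL21 with OMFP substrate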
# T5 sequence (Q64346 whole entry): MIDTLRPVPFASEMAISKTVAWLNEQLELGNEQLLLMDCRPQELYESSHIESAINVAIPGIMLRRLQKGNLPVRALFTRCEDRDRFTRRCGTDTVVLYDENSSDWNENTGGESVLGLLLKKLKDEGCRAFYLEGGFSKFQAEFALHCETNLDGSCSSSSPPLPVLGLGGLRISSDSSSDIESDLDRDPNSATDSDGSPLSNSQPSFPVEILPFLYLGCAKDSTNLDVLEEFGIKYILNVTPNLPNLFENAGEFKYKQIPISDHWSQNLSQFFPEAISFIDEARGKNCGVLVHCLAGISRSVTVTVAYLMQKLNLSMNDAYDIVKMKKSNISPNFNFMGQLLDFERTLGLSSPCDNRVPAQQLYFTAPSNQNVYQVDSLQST
# [8] = target: DNA dC->dU-editing enzyme APOBEC-3A (Homo sapiens, UniProt P31941); test: Dose Response confirmation of small molecule APOBEC3A DNA Deaminase Inhibitors via a fluorescence-based single-stranded DNA deaminase assay. [Related pubchem assays (depositor defined):AID493011, AID493024]; format: functional
# [9] = target: DNA dC->dU-editing enzyme APOBEC-3G (Homo sapiens, UniProt Q9HC16); format: functional;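 note: Dose-response counterscreen measuring inhibition of APOBEC3G DNA deaminase activity, run while confirming APOBEC3A inhibitors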
# [10] = target: T6, G-protein coupled receptor 35 (Homo sapiens, UniProt Q9HC97); test: SAR analysis of Agonists of the GPR35 Receptor using an Image-Based Assay - Set 4. [Related pubchem assays (depositor defined):AID2013, AID2026]; format: functional
# Cannabinoid receptor 1 [11] = target: T7, Cannabinoid receptor 1 (Homo sapiens, UniProt P21554); test: SAR analysis of agonists of the Cannabinoid Receptor 1 using an Image-Based Assay - Set 4. [Related pubchem assays (depositor defined):AID2013, AID2026]; format: functional
# [12] = target: T6, G-protein coupled receptor 35; test: SAR analysis of Antagonists of the GPR35 Receptor using an Image-Based Assay - Set 6. [Related pubchem assays (depositor defined):AID2013, AID2026]; format: functional
# Cannabinoid receptor 1 [13] = target: T7, Cannabinoid receptor 1; test: SAR analysis of antagonists of the Cannabinoid Receptor 1 using an Image-Based Assay - Set 4. [Related pubchem assays (depositor defined):AID2013, AID2026]; format: functional
# [14] = target: G-protein coupled receptor 55 (Homo sapiens, UniProt Q9Y2T6); test: SAR Analysis of Selective Antagonists of GPR55 using an Image-Based Assay - Set 4. [Related pubchem assays (depositor defined):AID2013, AID2026]; format: functional;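 note: antagonism of response to 5 µM lysophosphatidylinositol agonist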
# Cannabinoid receptor 2 [15] = target: T8, Cannabinoid receptor 2 (Homo sapiens, UniProt P34972); test: SAR analysis of antagonists of the Cannabinoid Receptor 2 using an Image-Based Assay - Set 3. [Related pubchem assays (depositor defined):AID2013, AID2026]; format: functional
# Cannabinoid receptor 2 [16] = target: T8, Cannabinoid receptor 2; test: SAR analysis of agonists of the Cannabinoid Receptor 2 using an Image-Based Assay - Set 3. [Related pubchem assays (depositor defined):AID2013, AID2026]; format: functional
# [17] = Luminescence Cell-Based Dose Retest to Confirm Inhibitors of Cancer Stem Cells. [Related pubchem assays (depositor defined):AID2717, AID2721]; format: functional; details: Homo sapiens
# [18] = target: DNA damage-inducible transcript 3 protein (Mus musculus, UniProt P35639); format: functional, Cricetulus griseus
# Trypsin = Trypsin (Sus scrofa, UniProt P00761); test: trypsin protease activity blockade – biochemical, quenched peptide fluorescence, cherry-pick, selectivity assay for Rce1 protease inhibitor project, dose response (AID 488789)
# CAAX prenyl protease 2 = CAAX prenyl protease 2 (Saccharomyces cerevisiae S288c, UniProt Q03530); format: biochemical
# Hexokinase = Hexokinase (Trypanosoma brucei, UniProt Q38C41); test: Confirmation assay for inhibitors of Trypanosoma brucei hexokinase 1-Analogue-first series. [Related pubchem assays (depositor defined):AID1430, AID1632, AID2516, AID2560, AID2579, AID2600, AID449725, AID492951]; format: functional
# T6 sequence (Q9HC97 whole entry): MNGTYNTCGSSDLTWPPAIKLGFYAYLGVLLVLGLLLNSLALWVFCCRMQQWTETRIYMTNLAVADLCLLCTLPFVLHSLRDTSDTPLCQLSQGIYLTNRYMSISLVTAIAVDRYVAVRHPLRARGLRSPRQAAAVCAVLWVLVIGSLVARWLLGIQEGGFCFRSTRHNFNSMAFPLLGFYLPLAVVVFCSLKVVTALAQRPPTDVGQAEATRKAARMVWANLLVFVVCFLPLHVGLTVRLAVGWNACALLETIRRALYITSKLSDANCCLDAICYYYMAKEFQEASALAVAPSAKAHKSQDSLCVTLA
# T7 sequence (P21554 whole entry): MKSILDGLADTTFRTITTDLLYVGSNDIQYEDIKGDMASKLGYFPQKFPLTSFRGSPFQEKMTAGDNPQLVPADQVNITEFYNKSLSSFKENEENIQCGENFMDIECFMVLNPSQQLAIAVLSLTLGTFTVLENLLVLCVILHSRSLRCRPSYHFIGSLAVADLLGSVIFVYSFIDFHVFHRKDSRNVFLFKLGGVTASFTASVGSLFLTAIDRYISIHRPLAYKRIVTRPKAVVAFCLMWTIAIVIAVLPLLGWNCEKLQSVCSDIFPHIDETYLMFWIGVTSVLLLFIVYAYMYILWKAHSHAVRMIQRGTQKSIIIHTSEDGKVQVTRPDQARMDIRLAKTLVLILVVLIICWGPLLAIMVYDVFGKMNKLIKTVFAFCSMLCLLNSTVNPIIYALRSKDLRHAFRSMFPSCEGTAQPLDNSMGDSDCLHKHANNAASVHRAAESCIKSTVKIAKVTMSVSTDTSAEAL
# T8 sequence (P34972 whole entry): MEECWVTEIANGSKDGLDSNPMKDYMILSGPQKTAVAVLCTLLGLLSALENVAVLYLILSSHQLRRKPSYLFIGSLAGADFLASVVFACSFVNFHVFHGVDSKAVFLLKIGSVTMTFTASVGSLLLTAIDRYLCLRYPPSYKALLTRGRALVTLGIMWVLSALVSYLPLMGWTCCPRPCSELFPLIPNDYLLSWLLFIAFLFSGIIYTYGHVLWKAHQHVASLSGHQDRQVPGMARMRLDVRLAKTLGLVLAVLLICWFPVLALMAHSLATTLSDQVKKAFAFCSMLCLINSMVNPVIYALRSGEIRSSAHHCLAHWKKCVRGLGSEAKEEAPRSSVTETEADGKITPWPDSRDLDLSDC
# Chain of CAAX prenyl protease 2 (Q03530 whole entry): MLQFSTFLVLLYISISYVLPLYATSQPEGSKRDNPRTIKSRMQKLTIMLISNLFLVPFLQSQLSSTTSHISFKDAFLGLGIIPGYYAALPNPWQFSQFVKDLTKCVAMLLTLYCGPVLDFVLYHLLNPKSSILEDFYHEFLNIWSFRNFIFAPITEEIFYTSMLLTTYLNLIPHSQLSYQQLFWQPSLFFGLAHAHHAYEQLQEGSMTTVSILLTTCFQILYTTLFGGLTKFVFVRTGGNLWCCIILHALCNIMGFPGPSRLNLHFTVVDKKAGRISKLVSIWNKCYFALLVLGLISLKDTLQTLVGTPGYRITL
# Chain of Hexokinase-1 (P19367 whole entry): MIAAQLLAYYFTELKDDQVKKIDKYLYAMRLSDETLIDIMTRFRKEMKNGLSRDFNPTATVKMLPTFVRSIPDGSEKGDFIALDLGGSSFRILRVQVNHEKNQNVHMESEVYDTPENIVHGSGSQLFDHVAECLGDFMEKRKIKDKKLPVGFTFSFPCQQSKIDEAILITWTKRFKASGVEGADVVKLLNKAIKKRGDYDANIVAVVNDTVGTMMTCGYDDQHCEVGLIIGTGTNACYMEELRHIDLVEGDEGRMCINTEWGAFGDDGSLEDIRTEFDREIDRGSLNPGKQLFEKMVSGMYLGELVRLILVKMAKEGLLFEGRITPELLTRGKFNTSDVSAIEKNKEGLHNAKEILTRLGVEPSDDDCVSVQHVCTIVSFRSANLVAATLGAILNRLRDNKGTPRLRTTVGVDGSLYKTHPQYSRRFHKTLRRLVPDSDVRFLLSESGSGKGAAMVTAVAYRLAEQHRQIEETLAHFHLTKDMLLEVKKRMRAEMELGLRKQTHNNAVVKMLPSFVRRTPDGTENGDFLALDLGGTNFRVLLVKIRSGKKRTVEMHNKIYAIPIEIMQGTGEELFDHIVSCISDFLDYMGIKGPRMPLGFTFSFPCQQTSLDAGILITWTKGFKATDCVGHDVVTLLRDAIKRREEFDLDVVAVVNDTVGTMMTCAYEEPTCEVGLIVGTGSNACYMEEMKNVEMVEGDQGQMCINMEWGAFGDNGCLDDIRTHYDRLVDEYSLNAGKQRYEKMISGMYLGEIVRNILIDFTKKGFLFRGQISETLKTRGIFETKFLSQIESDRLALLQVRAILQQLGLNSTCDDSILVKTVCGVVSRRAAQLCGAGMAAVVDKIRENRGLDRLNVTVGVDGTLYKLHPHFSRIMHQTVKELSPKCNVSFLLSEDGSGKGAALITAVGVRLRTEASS
# Chain of Dual specificity protein phosphatase 3 (P51452 whole entry): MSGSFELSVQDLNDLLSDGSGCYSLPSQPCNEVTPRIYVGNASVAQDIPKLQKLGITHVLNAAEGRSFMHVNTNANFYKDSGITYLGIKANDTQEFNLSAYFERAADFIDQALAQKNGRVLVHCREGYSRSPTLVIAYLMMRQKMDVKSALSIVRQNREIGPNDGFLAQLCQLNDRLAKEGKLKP
# Chain of DNA damage-inducible transcript 3 protein (P35639 whole entry): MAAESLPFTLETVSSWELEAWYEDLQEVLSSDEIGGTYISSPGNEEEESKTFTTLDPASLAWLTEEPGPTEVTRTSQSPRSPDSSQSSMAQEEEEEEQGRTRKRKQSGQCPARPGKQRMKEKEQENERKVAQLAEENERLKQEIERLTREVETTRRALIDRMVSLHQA
# Chain of DNA dC->dU-editing enzyme APOBEC-3G (Q9HC16 whole entry): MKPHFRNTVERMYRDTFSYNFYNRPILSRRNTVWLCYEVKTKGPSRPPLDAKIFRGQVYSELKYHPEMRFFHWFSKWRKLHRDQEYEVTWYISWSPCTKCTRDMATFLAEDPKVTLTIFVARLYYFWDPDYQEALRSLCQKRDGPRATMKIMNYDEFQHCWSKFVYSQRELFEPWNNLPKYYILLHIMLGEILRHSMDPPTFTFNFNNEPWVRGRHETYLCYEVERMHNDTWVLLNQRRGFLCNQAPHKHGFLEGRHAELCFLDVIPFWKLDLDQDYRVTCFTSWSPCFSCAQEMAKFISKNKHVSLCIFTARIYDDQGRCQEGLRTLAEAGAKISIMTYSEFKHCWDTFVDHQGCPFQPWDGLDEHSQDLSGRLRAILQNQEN
# Chain of Trypsin (P00761 whole entry): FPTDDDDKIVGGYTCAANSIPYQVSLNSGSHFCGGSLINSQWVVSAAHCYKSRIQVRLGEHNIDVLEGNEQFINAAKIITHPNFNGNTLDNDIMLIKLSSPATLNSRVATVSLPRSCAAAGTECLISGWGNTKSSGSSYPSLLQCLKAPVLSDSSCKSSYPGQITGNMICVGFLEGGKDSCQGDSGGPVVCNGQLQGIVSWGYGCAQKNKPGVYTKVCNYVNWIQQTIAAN
# Chain of Tyrosine-protein phosphatase non-receptor type 12 (Q05209 whole entry): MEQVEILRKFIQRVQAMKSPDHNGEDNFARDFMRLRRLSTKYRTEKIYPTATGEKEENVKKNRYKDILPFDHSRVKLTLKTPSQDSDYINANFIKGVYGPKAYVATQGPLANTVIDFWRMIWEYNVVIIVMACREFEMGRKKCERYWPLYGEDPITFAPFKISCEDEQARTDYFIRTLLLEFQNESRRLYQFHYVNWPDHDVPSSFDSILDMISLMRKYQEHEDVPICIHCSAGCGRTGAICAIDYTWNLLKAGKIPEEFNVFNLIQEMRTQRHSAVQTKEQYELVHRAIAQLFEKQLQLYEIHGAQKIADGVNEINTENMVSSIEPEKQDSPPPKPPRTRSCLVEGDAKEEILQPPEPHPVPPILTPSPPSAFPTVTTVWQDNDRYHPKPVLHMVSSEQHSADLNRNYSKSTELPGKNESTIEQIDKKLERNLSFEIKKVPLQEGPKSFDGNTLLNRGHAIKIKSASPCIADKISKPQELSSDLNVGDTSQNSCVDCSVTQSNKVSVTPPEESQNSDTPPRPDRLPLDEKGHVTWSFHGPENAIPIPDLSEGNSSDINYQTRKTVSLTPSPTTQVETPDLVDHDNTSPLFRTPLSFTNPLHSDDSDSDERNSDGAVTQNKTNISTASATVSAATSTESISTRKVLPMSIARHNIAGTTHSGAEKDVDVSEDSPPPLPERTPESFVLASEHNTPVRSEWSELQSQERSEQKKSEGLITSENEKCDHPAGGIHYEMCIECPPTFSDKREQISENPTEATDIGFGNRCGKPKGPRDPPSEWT
# Chain of DNA dC->dU-editing enzyme APOBEC-3A (P31941 whole entry): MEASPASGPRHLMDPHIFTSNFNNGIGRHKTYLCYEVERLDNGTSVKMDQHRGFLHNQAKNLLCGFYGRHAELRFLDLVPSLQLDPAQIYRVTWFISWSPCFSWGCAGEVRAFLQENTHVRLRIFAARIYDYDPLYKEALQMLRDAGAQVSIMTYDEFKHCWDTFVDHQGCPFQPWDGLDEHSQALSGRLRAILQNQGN
# Chain of G-protein coupled receptor 55 (Q9Y2T6 whole entry): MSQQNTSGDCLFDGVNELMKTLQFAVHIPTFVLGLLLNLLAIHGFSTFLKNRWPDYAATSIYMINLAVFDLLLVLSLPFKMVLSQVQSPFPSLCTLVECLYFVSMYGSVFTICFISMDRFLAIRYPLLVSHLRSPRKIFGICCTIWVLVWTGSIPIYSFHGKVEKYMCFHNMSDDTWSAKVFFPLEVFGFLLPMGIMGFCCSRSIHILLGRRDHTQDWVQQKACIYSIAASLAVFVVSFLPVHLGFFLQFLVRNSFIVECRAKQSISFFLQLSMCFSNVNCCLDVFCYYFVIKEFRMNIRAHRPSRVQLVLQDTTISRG
compound,measurement,setting,value
COc1ccc2c(c1)C1NC(S)=NC(C)(O2)C1C(=O)Nc1ccc(Cl)cc1 (stereo not given),EC50,T-cell,31.3 µM (inactive)
COc1ccccc1-n1c(S)nnc1CNC(=O)COc1ccccc1,IC50,Coagulation factor XII,> 50 µM (inactive)
Cn1c(=O)c2c(nc(NN/C=C3/C(=O)NC(=S)N(C4CCCCC4)C3=O)n2C)n(C)c1=O,EC50,Hexokinase HKDC1,> 80 µM (inactive)
same,EC50,Hexokinase-1,75.9 µM (inactive)
COc1cc(/C=C2/S/C(=N\c3cccc(Br)c3)NC2=O)ccc1OCC(=O)O,IC50,[1],7.86 µM (active)
same,IC50,[2],68.8 µM (active)
same,IC50,[3],7.44 µM (active)
same,IC50,[4],1.57 µM (active)
same,IC50,[5],32 µM (active)
same,IC50,[6],> 100 µM (inactive)
same,IC50,[7],> 100 µM (inactive)
Cc1cc(N/N=C/c2ccc(O)cc2)nc(NS(=O)(=O)c2ccccc2)n1,IC50,[8],21.9 µM (active)
same,IC50,[9],72.6 µM (active)
CCOc1ccc(CC(=O)N2CCC(n3nc(-c4ccccc4)oc3=O)CC2)cc1,EC50,[10],> 32 µM (inactive)
same,EC50,Cannabinoid receptor 1 [11],> 32 µM (inactive)
same,IC50,[12],> 32 µM (inactive)
same,IC50,Cannabinoid receptor 1 [13],7.68 µM (active)
same,IC50,[14],> 32 µM (inactive)
same,IC50,Cannabinoid receptor 2 [15],> 32 µM (inactive)
same,EC50,Cannabinoid receptor 2 [16],> 32 µM (inactive)
NC(=O)CC(NC(=O)Cc1cccc2ccccc12)c1ccc(NCc2ccccc2)c([N+](=O)[O-])c1 (stereo not given),AC50,[17],5.5 µM (active)
same,Absolute IC50 (CHOP),[18],10 µM
COc1ccccc1-c1cc(C(F)(F)F)n2ncc(S(=O)(=O)c3ccccc3)c2n1,AC50,Trypsin,13.1 µM (active)
same,AC50,CAAX prenyl protease 2,75.9 µM (active)
CC(C)(C)c1ccc(C(=O)Nc2cc(Cl)c(Cl)cc2C(=O)O)cc1,IC50,Hexokinase,1.36 µM (active)
